The text below walks through data of US10646488B2 (Araxes Pharma LLC, priority 2016, dated 2020).

The first experiment has as its target T1, KRAS G12C 1-169, his-tagged protein, GDP-loaded (Homo sapiens, UniProt P01116, G12C).
T1 construct: KRAS G12C 1-169, his-tagged protein, GDP-loaded
As to the kind of experiment: Covalent binding (% modification) to KRAS G12C by mass spectrometry. Conditions: covalent binding to KRAS G12C after a ten minute incubation period. As for the experimental part:
Test compounds were prepared as 10 mM stock solutions in DMSO (Fisher cat # BP-231-100). KRAS G12C 1-169, his-tagged protein, GDP-loaded was diluted to 2 μm in buffer (20 mM Hepes, 150 mM NaCl, 1 mM MgCl2). Compounds were tested for activity as follows:
Compounds were diluted to 50× final test concentration in DMSO in 96-well storage plates. Compound stock solutions were vortexed before use and observed carefully for any sign of precipitation. Dilutions were as follow: • For 100 μM final compound concentration, compounds were diluted to 5000 μM (5 μl 10 mM compound stock+5 μl DMSO and mixed well by pipetting. • For 30 μM final compound concentration, compounds were diluted to 1500 μM (3 μl 10 mM compound stock+17 μl DMSO) and mixed well by pipetting. • For 10 μM final compound concentration, compounds were diluted to 500 μM (2 μl 10 mM compound stock+38 μl DMSO) and mixed well by pipetting. 49 μl of the stock protein solution was added to each well of a 96-well PCR plate (Fisher cat #1423027). 1 μl of the diluted 50× compounds were added to appropriate wells in the PCR plate using 12-channel pipettor. Reactions were mixed carefully and thoroughly by pipetting up/down with a 200·1 multi-channel pipettor. […] 5 μl of 2% formic acid (Fisher cat # A117) in DI H2O was then added to each well followed by mixing with a pipette. The plate was then resealed with aluminum seal and stored on dry ice until analyzed as described below.
The above described assays were analyzed by mass spectrometry according to one of the following two procedures:
The MS instrument is set to positive polarity, 2 GHz resolution, and low mass (1700) mode and allowed to equilibrate for 30 minutes. The instrument is then calibrated, switched to acquisition mode and the appropriate method loaded.
After another 30 minute equilibration time, a blank batch (i.e., buffer) is run to ensure equipment is operating properly. The samples are thawed at 37° C. for 10 minutes, briefly centrifuged, and transfer to the bench top. Wells A1 and H12 are spiked with 1 uL 500 uM internal standard peptide, and the plates centrifuged at 2000×g for 5 minutes. The method is then run and masses of each individual well recorded.
The masses (for which integration data is desired) for each well are pasted into the platemap and exported from the analysis. Masses for the internal standards are exported as well. The data at 50 ppm is extracted for the +19 charge state, and identity of well A1 is assigned using the internal standard spike and integrated. Peak data is exported as a TOF list and the above steps are repeated individually, for the +20, 21, 22, 23, 24, and 25 charge states.
The masses and peak intensities of KRAS G12C protein species were measured using a Dionex RSLCnano system (Thermo Scientific) connected to a Q Exactive Plus mass spectrometer (Thermo Scientific).
[…] of sample was each loaded onto a Aeris™ 3.6 μm WIDEPORE C4 200 Å, LC Column 50×2.1 mm column maintained at 40° C. at a flow rate of 600 μl min^−1 with […] (0.1% formic acid in acetonitrile). The liquid chromatography conditions were 20% solvent B for 1 min, 20% to 60% solvent B for 1.5 min, 60% to 90% solvent for 0.5 min, 90% solvent B for 0.2 min, 90% to 20% solvent B for 0.2 min, and then equilibrated for 1.6 min before the following sample injection. The flow rate was maintained at 600 μl min^−1 throughout the sample analysis.
The mass spectrometer was operated in profile mode at a resolution of 17500, 5 microscans, using 50 msec max injection time and an AGC target of 1e6, and a full mass range from 800-1850 m/z was recorded. The HCD trapping gas was optimized for maximum sensitivity for intact proteins. The ionization method was electrospray ionization, which used a spray voltage of 4 kV, sheath gas flow set to 50 au, auxiliary gas flow set to 10 au and sweep gas flow set to 1 au. […]
Consider `C=CC(=O)N1[C@H](C)CN(c2nc(OCCc3ccccn3)nc3c(F)c(-c4c(O)cccc4F)c(Cl)cc23)C[C@@H]1C` [Compound 36, 1-((2R,6S)-4-(6-chloro-8-fluoro-7-(2-fluoro-6-hydroxyphenyl)-2-(2-(pyridin-2-yl)ethoxy)quinazolin-4-yl)-2,6-dimethyl-piperazin-1-yl) prop-2-en-1-one], for which the Binding % entry is recorded as “++ (++ indicates binding activity from 50 to 90%)”. Still for that read-out and setting: with `C=CC(=O)N1[C@H](C)CN(c2nc(N)nc3c(F)c(-c4c(C)ccc5cn[nH]c45)c(Cl)cc23)C[C@@H]1C` [Compound 6, 1-((2S,6R)-4-(2-amino-6-chloro-8-fluoro-7-(6-methyl-1H-indazol-7-yl)quinazolin-4-yl)-2,6-dimethyl-piperazin-1-yl) prop-2-en-1-one] the entry was “++ (++ indicates binding activity from 50 to 90%)”; with `C=CC(=O)N1C[C@H](C)N(c2nc(OCCN3CC(F)(F)C3)nc3c(F)c(-c4c(O)cccc4F)c(Cl)cc23)C[C@H]1C` (atropisomer, axis not shown) [Compound 84, 1-((2R,5S)-4-((S)-6-chloro-2-(2-(3,3-difluoroazetidin-1-yl)ethoxy)-8-fluoro-7-(2-fluoro-6-hydroxyphenyl)quinazolin-4-yl)-2,5-dimethyl-piperazin-1-yl) prop-2-en-1-one], “+++ (+++ indicates binding activity greater than 90%)”; with `C=CC(=O)N1CCN(c2nc(N)nc3c(F)c(-c4c(O)cccc4F)c(Cl)cc23)[C@@H](C)C1` [Compound 4, 1-((3S)-4-(2-amino-6-chloro-8-fluoro-7-(2-fluoro-6-hydroxyphenyl)quinazolin-4-yl)-3-methylpiperazin-1-yl)prop-2-en-1-one], “++ (++ indicates binding activity from 50 to 90%)”.

In the case of `C=CC(=O)N1C[C@H](C)N(c2nc(N3CC(N(C)C)C3)nc3c(F)c(-c4c(C)ccc5cn[nH]c45)c(Cl)cc23)C[C@H]1C` (atropisomer, axis not shown) [Compound 72, 1-((2R,5S)-4-((R)-6-chloro-2-(3-(dimethylamino)azetidin-1-yl)-8-fluoro-7-(6-methyl-1H-indazol-7-yl)quinazolin-4-yl)-2,5-dimethyl-piperazin-1-yl) prop-2-en-1-one], the Binding % result is “+++ (+++ indicates binding activity greater than 90%)”.

The same experiment, now with this note: covalent binding to KRAS G12C after a three minute incubation period.
Turning to `C=CC(=O)N1C[C@H](C)N(c2nc(N3CC(C)(N(C)C)C3)nc3c(F)c(-c4c(O)cccc4F)c(Cl)cc23)C[C@H]1C` [Compound 104, 1-((2R,5S)-4-(6-chloro-2-(3-(dimethylamino)-3-methylazetidin-1-yl)-8-fluoro-7-(2-fluoro-6-hydroxyphenyl)quinazolin-4-yl)-2,5-dimethyl-piperazin-1-yl) prop-2-en-1-one], the Binding % entry is listed as “+++ (+++ indicates binding activity greater than 90%)”.

For the compound `C=CC(=O)N1C[C@H](C)N(c2nc(N3CC(N(C)C)C3)nc3c(F)c(-c4c(F)cccc4OC(C)=O)c(Cl)cc23)C[C@H]1C` [Compound 214, 2-(4-((2S,5R)-4-acryloyl-2,5-dimethylpiperazin-1-yl)-6-chloro-2-(3-(dimethylamino)azetidin-1-yl)-8-fluoroquinazolin-7-yl)-3-fluoro-phenyl acetate], the Binding % entry is “+ (+ indicates binding activity greater than 0% and up to 50%)”. For the compound `C=CC(=O)N1C[C@H](C)N(c2nc(N3CC(N(CC)C4CC4)C3)nc3c(F)c(-c4c(O)cccc4F)c(Cl)cc23)C[C@H]1C` [Compound 105, 1-((2R,5S)-4-(6-chloro-2-(3-(cyclopropyl (ethyl)amino)azetidin-1-yl)-8-fluoro-7-(2-fluoro-6-hydroxyphenyl)quinazolin-4-yl)-2,5-dimethyl-piperazin-1-yl) prop-2-en-1-one], the Binding % result is listed as “++ (++ indicates binding activity from 50 to 90%)”.

As for `C=CC(=O)N1CCN(c2nc(CN(C)Cc3ncccn3)nc3c(F)c(-c4c(O)cccc4F)c(Cl)cc23)C[C@H]1C` [Compound 91, 1-((2R)-4-(6-chloro-8-fluoro-7-(2-fluoro-6-hydroxyphenyl)-2-((methyl (pyrimidin-2-yl-methyl)amino)methyl)quinazolin-4-yl)-2-methyl-piperazin-1-yl) prop-2-en-1-one], the Binding % result is “+ (+ indicates binding activity greater than 0% and up to 50%)”.

In the case of `C=CC(=O)N1C[C@H](C)N(c2nc(OCCN3CCC(F)(F)C3)nc3c(F)c(-c4cc(O)cc5ccccc45)c(Cl)cc23)C[C@H]1C` [Compound 201, 1-((2R,5S)-4-(6-chloro-2-(2-(3,3-difluoropyrrolidin-1-yl)ethoxy)-8-fluoro-7-(3-hydroxynaphthalen-1-yl)quinazolin-4-yl)-2,5-dimethyl-piperazin-1-yl) prop-2-en-1-one], the Binding % entry is “++ (++ indicates binding activity from 50 to 90%)”.

For `C=CC(=O)N1C[C@H](C)N(c2nc(N3CC(NC)C3)nc3c(F)c(-c4c(O)cccc4F)c(Cl)cc23)C[C@H]1C` [Compound 96, 1-((2R,5S)-4-(6-chloro-8-fluoro-7-(2-fluoro-6-hydroxyphenyl)-2-(3-(methylamino)azetidin-1-yl)quinazolin-4-yl)-2,5-dimethyl-piperazin-1-yl) prop-2-en-1-one], the Binding % entry is reported as “+++ (+++ indicates binding activity greater than 90%)”. The same measure, in the same setting: for `C=CC(=O)N1C[C@H](C)N(c2nc(N3CC(NC)C3)nc3c(F)c(-c4c(C)ccc5cn[nH]c45)c(Cl)cc23)C[C@H]1C` (atropisomer, axis not shown) [Compound 109, 1-((2R,5S)-4-(6-chloro-8-fluoro-7-((S)-6-methyl-1H-indazol-7-yl)-2-(3-(methylamino)azetidin-1-yl)quinazolin-4-yl)-2,5-dimethyl-piperazin-1-yl) prop-2-en-1-one] the value was “+ (+ indicates binding activity greater than 0% and up to 50%)”. Still for that read-out and setting: for `C=CC(=O)N1CCN(c2nc(N3CC(N(CC)CC)C3)nc3c(F)c(-c4c(C)ccc5[nH]ncc45)c(Cl)cc23)C[C@H]1C` [Compound 166, 1-((2R)-4-(6-chloro-2-(3-(diethylamino)azetidin-1-yl)-8-fluoro-7-(5-methyl-1H-indazol-4-yl)quinazolin-4-yl)-2-methyl-piperazin-1-yl) prop-2-en-1-one] the value was “++ (++ indicates binding activity from 50 to 90%)”; for `C=CC(=O)N1C[C@H](C)N(c2nc(N3CC4(CCCN(C5CC5)C4)C3)nc3c(F)c(-c4c(O)cccc4F)c(Cl)cc23)C[C@H]1C` [Compound 195, 1-((2R,5S)-4-(6-chloro-2-(6-cyclopropyl-2,6-diazaspiro[3.5]nonan-2-yl)-8-fluoro-7-(2-fluoro-6-hydroxyphenyl)quinazolin-4-yl)-2,5-dimethyl-piperazin-1-yl) prop-2-en-1-one], “+ (+ indicates binding activity greater than 0% and up to 50%)”. On the same count and under the same terms, for `[2H]C([2H])([2H])N(C1CN(c2nc(N3C[C@@H](C)N(C(=O)C=C)C[C@@H]3C)c3cc(Cl)c(-c4c(O)cccc4F)c(F)c3n2)C1)C([2H])([2H])[2H]` (atropisomer, axis not shown) [Compound 207, 1-((2R,5S)-4-(2-(3-(bis(triduetero-methyl)amino)azetidin-1-yl)-6-chloro-8-fluoro-7-((S)-2-fluoro-6-hydroxyphenyl)quinazolin-4-yl)-2,5-dimethyl-piperazin-1-yl) prop-2-en-1-one] the value was “+++ (+++ indicates binding activity greater than 90%)”.
